Data: ChEMBL document CHEMBL1158726, “Taxoids and abietanes from callus cultures of Taxus cuspidata” (2005)

Key:
Type in all cases: functional, A2780 ADR
[1] = Reversal of multidrug resistance in human 2780AD cells assessed as [3H]vincristine accumulation at 1 ug/mL after 2 hrs relative to control
[2] = Reversal of multidrug resistance in human 2780AD cells assessed as [3H]vincristine accumulation at 0.1 ug/mL after 2 hrs relative to control
[3] = Reversal of multidrug resistance in human 2780AD cells assessed as [3H]vincristine accumulation at 10 ug/mL after 2 hrs relative to verapamil
[4] = Reversal of multidrug resistance in human 2780AD cells assessed as [3H]vincristine accumulation at 0.1 ug/mL after 2 hrs relative to verapamil
[5] = Reversal of multidrug resistance in human 2780AD cells assessed as [3H]vincristine accumulation at 10 ug/mL after 2 hrs relative to control
[6] = Reversal of multidrug resistance in human 2780AD cells assessed as [3H]vincristine accumulation at 1 ug/mL after 2 hrs relative to verapamil

| SMILES | Activity [1] | Activity [2] | Activity [3] | Activity [4] | Activity [5] | Activity [6] |
| --- | --- | --- | --- | --- | --- | --- |
| C=C1[C@@H](OC(C)=O)CC[C@]2(C)[C@@H]1C[C@@H]1C[C@H](OC(C)=O)C(C)=C([C@@H](OC(C)=O)[C@@H]2OC(C)=O)C1(C)C [TAXUSIN] | 228% | 106% | 136% | 102% | 461% | 157% |
| COc1ccc(CCN(C)CCCC(C#N)(c2ccc(OC)c(OC)c2)C(C)C)cc1OC (centres undefined) [VERAPAMIL] | 145% | 104% |  |  | 352% |  |
